# Laboratory results as given in ChEMBL document CHEMBL1146479, “Antineoplastic agents. 522. Hernandia peltata (Malaysia) and Hernandia nymphaeifolia (Republic of Maldives)” (2004).
# Experiments:
# Format in all cases: functional
# [1] = system: Neisseria gonorrhoeae; assay: Antimicrobial activity against Neisseria gonorrhoeae ATCC 49226 by antimicrobial susceptibility testing
# [2] = system: MCF7; assay: Anticancer activity against human MCF7 cells after 48 hrs by SRB assay; conditions: MCF7, 48 h, read-out: ED50 (the source's name)
# [3] = system: BXPC-3; assay: Anticancer activity against human BxPC3 cells after 48 hrs by SRB assay; conditions: BXPC-3, 48 h, read-out: ED50 (the source's name)
# [4] = system: SF-268; assay: Anticancer activity against human SF268 cells after 48 hrs by SRB assay; conditions: SF-268, 48 h, read-out: ED50 (the source's name)
# [5] = system: DU-145; assay: Anticancer activity against human DU145 cells after 48 hrs by SRB assay; conditions: DU-145, 48 h, read-out: ED50 (the source's name)
# [6] = system: P388; assay: Anticancer activity against mouse P388 cells after 48 hrs; conditions: P388, 48 h, read-out: ED50 (the source's name)
# [7] = system: KM-20L2; assay: Anticancer activity against human KM20L2 cells after 48 hrs by SRB assay; conditions: KM-20L2, 48 h, read-out: ED50 (the source's name)
# [8] = system: NCI-H460; assay: Anticancer activity against human NCI-H460 cells after 48 hrs by SRB assay; conditions: NCI-H460, 48 h, read-out: ED50 (the source's name)
Structure (SMILES),MIC [1],EC50 [2],EC50 [3],EC50 [4],EC50 [5],EC50 [6],EC50 [7],EC50 [8]
COc1cc([C@@H]2c3cc4c(cc3C[C@H]3COC(=O)[C@@H]32)OCO4)cc(OC)c1OC [DESOXYPODOPHYLLOTOXIN],32 µg/mL,0.0021 µg/mL,0.0029 µg/mL,0.0033 µg/mL,0.0028 µg/mL,0.0023 µg/mL,0.0028 µg/mL,0.0027 µg/mL
COc1cc2c(c(OC)c1OC)-c1cc3c(cc1C[C@H]1COC(=O)[C@@H]1C2)OCO3 [STEGANE],,4.3 µg/mL,4.7 µg/mL,4.9 µg/mL,5.3 µg/mL,6.1 µg/mL,4.8 µg/mL,5.8 µg/mL
COc1cc2c(c(OC)c1OC)[C@]13C=C(O)C(=O)C=C1O[C@H]2[C@H]1C(=O)OC[C@@H]1C3,32 µg/mL,,,,,,,
COc1cc([C@@H]2OC[C@H]3[C@@H]2CO[C@@H]3c2ccc3c(c2)OCO3)cc(OC)c1OC,,> 10 µg/mL,> 10 µg/mL,> 10 µg/mL,> 10 µg/mL,1.5 µg/mL,> 10 µg/mL,> 10 µg/mL
COc1ccc([C@H]2OC[C@H]3[C@@H]2CO[C@H]3c2ccc(OC)c(OC)c2)cc1OC,,3.5 µg/mL,3.4 µg/mL,3.8 µg/mL,3.1 µg/mL,1.7 µg/mL,3 µg/mL,3.8 µg/mL
COc1cc([C@@H]2c3cc4c(cc3C[C@H]3COC(=O)[C@H]32)OCO4)cc(OC)c1OC [DEOXYPICROPODOPHYLLIN],32 µg/mL,0.026 µg/mL,0.061 µg/mL,0.041 µg/mL,0.051 µg/mL,0.03 µg/mL,0.054 µg/mL,0.067 µg/mL

# More lines, main results first:
MIC [1],Structure (SMILES),EC50 [2],EC50 [3],EC50 [4],EC50 [5],EC50 [6],EC50 [7],EC50 [8]
32 µg/mL,COc1cc(CC2C(Cc3ccc4c(c3)OCO4)COC2O)cc(OC)c1OC (stereo not given) [CLUSIN],,,,,,,
32 µg/mL,COc1ccc(C[C@H]2COC(=O)[C@@H]2Cc2ccc(OC)c(OC)c2)cc1OC,,,,,,,
32 µg/mL,COc1cc(C[C@H]2COC(=O)[C@@H]2Cc2cc(OC)c(OC)c(OC)c2)ccc1O [HERNANOL],,,,,,,
32 µg/mL,COc1ccc(CC2COC(O)C2Cc2ccc(OC)c(OC)c2)cc1OC (stereo not given) [KUSUNOKINOL],,,,,,,
32 µg/mL,COc1cc([C@@H](O)[C@H]2C(=O)OC[C@@H]2Cc2ccc3c(c2)OCO3)cc(OC)c1OC [PODORHIZOL],6.6 µg/mL,3.8 µg/mL,> 10 µg/mL,> 10 µg/mL,> 1 µg/mL,> 10 µg/mL,> 10 µg/mL
